Converted amounts (≈) assume the structure as drawn. Like-named read-outs stand apart in the source and are kept apart here.
Key:
[1] = test system: MGC-803 (human gastric cancer cell line); test: MTT antiproliferative assay, MGC-803; format: cell-based; conditions: exposure for 48 h, means ± SDs of three independent experiments
Protocol: (§1) All synthesized sulfonamide-1,2,3-triazole hybrids were evaluated for their anticancer activity against three cancer cell lines: MGC-803 (human gastric cancer cell line), MCF-7 (human breast cancer cell line), and PC-3 (human prostate cancer cell line) using a MTT (4,5-dimethyl-2-thiazolyl)-2,5-diphenyl-2-H-tetrazolium bromide) assay. The well-known tubulin polymerization inhibitor CA-4P was used as a control. In [24], 5-fluorouracil (5-Fu) was selected as the control in the antiproliferative evaluation assay of 1,2,3-triazole derivatives. Therefore, 5-Fu was also used as the reference drug in this MTT assay.
(§2) MGC-803 cells (human gastric cancer), MCF-7 (human breast cancer), PC-3 (human prostate cancer) and GES-1 (human gastric epithelial cell) were cultured in RPMI 1640 medium with 10% FBS and 100 U/mL penicillin and 0.1 mg/mL streptomycin in the 37 °C in an atmosphere containing 5% CO2. All cell lines were purchased from the China Center for Type Culture Collection (CCTCC, Shanghai, China). For pharmacological investigations, 10 mM stock solutions of the tested compounds were prepared with dimethyl sulfoxide (DMSO). […] The MTT assay was prepared according to the previous method.

[2] = test system: MCF-7 (human breast cancer cell line); test: MTT antiproliferative assay, MCF-7; format: cell-based; conditions: MCF7, exposure for 48 h, means ± SDs of three independent experiments
Protocol: as §1, §2

[3] = test system: PC-3 (human prostate cancer cell line); test: MTT antiproliferative assay, PC-3; format: cell-based; conditions: exposure for 48 h, means ± SDs of three independent experiments
Protocol: as §1, §2

[4] = test system: MGC-803, MCF-7 and PC-3 cells; test: MTT antiproliferative assay, three cancer cell lines together; format: cell-based; conditions: Homo sapiens; range over MGC-803, MCF-7 and PC-3; read-out: IC50 values ranging over three cell lines
Protocol: as §1, §2

[5] = MTT assay on normal cells, GES-1; format: cell-based; conditions: GES-1 cells (normal gastric epithelial cell line), normal human gastric epithelial cell line, read-out: inhibitory effect / cytotoxicity against GES-1
Protocol: Compound 11f was further examined for possible inhibitory effects against GES-1 (normal human gastric epithelial cell line).
as §2

tubulin [6] = test: In vitro tubulin polymerization inhibition assay; format: biochemical; conditions: 5.6 mg/mL tubulin in PEM buffer, read-out: inhibitory concentration that reduced the polymerized tubulin by 50% (IC50)
Protocol: The inhibitory concentrations that reduced the polymerized tubulin by 50% of CA-4P was 2.40 μM [25]. To investigate whether the synthesized 1,2,3-triazole-sulfonamide hybrids target the tubulin-microtubule system, the in vitro tubulin polymerization inhibition activity of compound 11f was evaluated because of its best antiproliferative activity results among all the tested compounds in the initial cytotoxicity screening. When tubulin was incubated with the tested 1,2,3-triazole-sulfonamide 11f at the indicated concentrations, an increased fluorescence intensity was obvious.
Tubulin polymerization in vitro was assyed with 100 μL samples and monitored by absorbance at 350 nm (Filter A00019x) in 96-well plates with an Appliskan plate reader (Thermo Fisher Scientific, Waltham, MA, USA). An amount of 5.6 mg/mL tubulin was resuspended in PEM buffer (80 mM PIPES (pH 6.9), 1 mM EGTA, 0.5 mM MgCl2, […], 10.2% (v/v) glycerol) and then was preincubated with compound 11f or vehicle DMSO on ice. Data were exported using the Thermo Scientific SkanIt software of the Appliskan (version 2.3) and Excel software was used to generate plots. For convenience, data were normalized to the minimum absorbance value of the initial stable plateau. This tubulin polymerization inhibition assay was measured according to the method originally.

PC3 cells = test system: PC3 cells; set-up: method as in PMID 27423028; conditions: read-out: IC50 against PC3 cells; cited from earlier work
4T1 mammary tumor cells = conditions: 45 mg/kg; cited from earlier work
CDK2 = test system: CDK2; set-up: method as in PMID 28005359; conditions: cited from earlier work
CDK1 = test system: CDK1; set-up: method as in PMID 28005359; conditions: cited from earlier work
[7] = test system: HCT116 human colon carcinoma; set-up: method as in PMID 10508428; conditions: cell proliferation assay; cited from earlier work
murine leukemia = test system: murine leukemia; set-up: method as in PMID 26501246; conditions: read-out: IC50 against the proliferation of murine leukemia; cited from earlier work
tubulin [8] = test system: tubulin; set-up: method as in PMID 24923521; conditions: read-out: IC50 inhibition of tubulin assembly; cited from earlier work
A2780AD cell line = test system: A2780AD cell line; set-up: method as in PMID 28640209; conditions: read-out: IC50 antiproliferative activity against A2780AD cell line; cited from earlier work

`O=c1[nH]cc(F)c(=O)[nH]1` [5-Fu, 5-Fluorouracil, reference compound] showed an IC50 [1] of 15.6 ± 0.4 µM, an IC50 [2] of 21.2 ± 3.6 µM and an IC50 ([3]; Homo sapiens, 48 h) of 13.9 ± 1.5 µM.
`C#CCNS(=O)(=O)c1cccs1` [9a, N-(Prop-2-yn-1-yl)thiophene-2-sulfonamide] showed an IC50 [1] greater than 100 µM, an IC50 [2] greater than 100 µM and an IC50 ([3]; Homo sapiens, 48 h) greater than 100 µM.
In the case of `C#CCNS(=O)(=O)c1ccc2oc(=O)ccc2c1` [9d, 2-Oxo-N-(prop-2-yn-1-yl)-2H-chromene-6-sulfonamide], the IC50 [1] is reported as greater than 100 µM, the IC50 [2] is reported as greater than 100 µM and the IC50 ([3]; Homo sapiens, 48 h) is reported as greater than 100 µM. The melting point was 193 to 196 °C.
For `C#CCNS(=O)(=O)c1ccc(C)cc1` [9f, 4-Methyl-N-(prop-2-yn-1-yl)benzenesulfonamide], the IC50 [1] was greater than 100 µM, the IC50 [2] was greater than 100 µM and the IC50 ([3]; Homo sapiens, 48 h) was greater than 100 µM.
For `O=S(=O)(NCc1cn(Cc2cccc(Oc3ccccc3)c2)nn1)c1cccs1` [11a, N-((1-(3-Phenoxybenzyl)-1H-1,2,3-triazol-4-yl)methyl)thiophene-2-sulfonamide], the IC50 [1] was 17 ± 1.8 µM, the IC50 [2] was 78.5 ± 2.2 µM and the IC50 ([3]; Homo sapiens, 48 h) was 24.6 ± 0.9 µM. It also gave a melting point of 104 to 106 °C.
Molecule `O=S(=O)(NCc1cn(Cc2cccc(Oc3ccccc3)c2)nn1)c1ccc(Cl)s1` [11b, 5-Chloro-N-((1-(3-phenoxybenzyl)-1H-1,2,3-triazol-4-yl)methyl)thiophene-2-sulfonamide] has an IC50 [1] of 15.3 ± 0.8 µM, an IC50 [2] of 49.9 ± 1.2 µM and an IC50 ([3]; Homo sapiens, 48 h) of 19.8 ± 0.6 µM. For the same molecule, the melting point was 110 to 111 °C.
In the case of `O=S(=O)(NCc1cn(Cc2cccc(Oc3ccccc3)c2)nn1)c1ccc(Br)s1` [11c, 5-Bromo-N-((1-(3-phenoxybenzyl)-1H-1,2,3-triazol-4-yl)methyl)thiophene-2-sulfonamide], the IC50 [1] is reported as 31 ± 2.2 µM, the IC50 [2] is reported as 34.7 ± 2.6 µM and the IC50 ([3]; Homo sapiens, 48 h) is reported as 49.4 ± 1 µM. The melting point was 111 to 112 °C.
Work on `O=c1ccc2cc(S(=O)(=O)NCc3cn(Cc4cccc(Oc5ccccc5)c4)nn3)ccc2o1` [11d, 2-Oxo-N-((1-(3-phenoxybenzyl)-1H-1,2,3-triazol-4-yl)methyl)-2H-chromene-6-sulfonamide] yielded an IC50 [1] of 88.8 ± 0.5 µM, an IC50 [2] of 36.4 ± 2 µM and an IC50 ([3]; Homo sapiens, 48 h) of 34.1 ± 0.3 µM. It also gave an IC50 [4] of 34.1 to 88.8 µM and a melting point of 144 to 146 °C.
`O=S(=O)(NCc1cn(Cc2cccc(Oc3ccccc3)c2)nn1)c1ccccc1` [11e, N-((1-(3-Phenoxybenzyl)-1H-1,2,3-triazol-4-yl)methyl)benzenesulfonamide] showed an IC50 [1] of 21.7 ± 0.1 µM, an IC50 [2] of 39.6 ± 5 µM and an IC50 ([3]; Homo sapiens, 48 h) of 6.4 ± 1.2 µM. For the same molecule, the melting point was 127 to 130 °C.
`Cc1ccc(S(=O)(=O)NCc2cn(Cc3cccc(Oc4ccccc4)c3)nn2)cc1` [11f, 4-Methyl-N-((1-(3-phenoxybenzyl)-1H-1,2,3-triazol-4-yl)methyl)benzenesulfonamide] gave an IC50 [1] of 13.7 ± 2.9 µM, an IC50 [2] of 15.7 ± 0.2 µM and an IC50 ([3]; Homo sapiens, 48 h) of 4.08 µM. The IC50 [3] was 4.1 ± 1.4 µM, the IC50 [5] was greater than 64 µM and the IC50 (tubulin [6]) was 2.41 µM. The IC50 [4] was 4.1 to 15.7 µM and the melting point was 118 to 121 °C.
For `CC(C)(C)c1ccc(S(=O)(=O)NCc2cn(Cc3cccc(Oc4ccccc4)c3)nn2)cc1` [11g, 4-(Tert-butyl)-N-((1-(3-phenoxybenzyl)-1H-1,2,3-triazol-4-yl)methyl)benzenesulfonamide], the IC50 [1] was greater than 100 µM, the IC50 [2] was 54.9 ± 1.7 µM and the IC50 ([3]; Homo sapiens, 48 h) was 7.1 ± 0.5 µM. For the same molecule, the melting point was 137 to 139 °C.
In the case of `Cc1cc(C)c(S(=O)(=O)NCc2cn(Cc3cccc(Oc4ccccc4)c3)nn2)c(C)c1` [11h, 2,4,6-Trimethyl-N-((1-(3-phenoxybenzyl)-1H-1,2,3-triazol-4-yl)methyl)benzenesulfonamide], the IC50 [1] is reported as 18.4 ± 0.7 µM, the IC50 [2] is reported as 24.6 ± 1.6 µM and the IC50 ([3]; Homo sapiens, 48 h) is reported as 24.7 ± 3 µM. It also gave a melting point of 111 to 113 °C.
In the case of `O=S(=O)(NCc1cn(Cc2cccc(Oc3ccccc3)c2)nn1)c1ccccc1Cl` [11i, 2-Chloro-N-((1-(3-phenoxybenzyl)-1H-1,2,3-triazol-4-yl)methyl) benzenesulfonamide], the IC50 [1] is reported as 15.3 ± 0.5 µM, the IC50 [2] is reported as 77.5 ± 0.7 µM and the IC50 ([3]; Homo sapiens, 48 h) is reported as 22.7 ± 0.5 µM. For the same molecule, the melting point was 97 to 99 °C.
Molecule `Cc1ccc(S(=O)(=O)NCc2cn(Cc3cccc(C#N)c3)nn2)cc1` [11j, N-((1-(3-Cyanobenzyl)-1H-1,2,3-triazol-4-yl)methyl)-4-methylbenzenesulfonamide] has an IC50 [1] of 41.3 ± 2.3 µM, an IC50 [2] greater than 100 µM and an IC50 ([3]; Homo sapiens, 48 h) greater than 100 µM. For the same molecule, the melting point was 145 to 147 °C.
`Cc1ccc(S(=O)(=O)NCc2cn(Cc3cccc(C)c3)nn2)cc1` [11k, 4-Methyl-N-((1-(3-methylbenzyl)-1H-1,2,3-triazol-4-yl)methyl)benzenesulfonamide] gave an IC50 [1] of 75.8 ± 0.6 µM, an IC50 [2] greater than 100 µM and an IC50 ([3]; Homo sapiens, 48 h) greater than 100 µM. For the same molecule, the melting point was 145 to 148 °C.
Molecule `COc1cccc(Cn2cc(CNS(=O)(=O)c3ccc(C)cc3)nn2)c1` [11l, N-((1-(3-Methoxybenzyl)-1H-1,2,3-triazol-4-yl)methyl)-4-methylbenzenesulfonamide] has an IC50 [1] of 77.2 ± 7.8 µM, an IC50 [2] greater than 100 µM and an IC50 ([3]; Homo sapiens, 48 h) greater than 100 µM. The melting point was 112 to 114 °C.
For `O=S1(=O)CCCN(S(=O)(=O)c2ccc(-c3cnc(C4CC4)o3)cc2)c2ccccc21` [BA-3P], the IC50 (PC3 cells) is listed as 5.88 µM.
For `NS(=O)(=O)c1ccc(NC(=O)Nc2cccc([N+](=O)[O-])c2)cc1` [compound 1], the “formation of metastases by 4T1 mammary tumor cells” value (4T1 mammary tumor cells) is listed as “significantly inhibited the formation of metastases”.
In the case of `NS(=O)(=O)c1ccc(Nc2nc(-c3cccc(-c4ccccc4)c3)c3nc[nH]c3n2)cc1` [compound 3], the IC50 (CDK2) is given as 0.044 µM, the “fold less active toward CDK1 than CDK2” value (CDK1; CDK1 vs CDK2) is given as ~ 2000 fold and the IC50 (CDK1) is given as 86 µM.
In the case of `NS(=O)(=O)c1ccc(S(=O)(=O)Nc2cccc3c(Cl)c[nH]c23)cc1` [compound 4, N-(3-chloro-7-indolyl)-1,4-benzenedisulfonamide], the “IC50 against HCT116 human colon carcinoma” value [7] is given as 0.11 µg/mL (≈ 0.285 µM).
For `Nc1nc(Cl)c2ncn(Cc3cn(C[C@H](OCc4ccccc4)[C@@H](O)P(=O)(OCc4ccccc4)OCc4ccccc4)nn3)c2n1` [compound 5], the IC50 (murine leukemia) is listed as 21 µM.
In the case of `COc1cc2c(cc1O)CC[C@@H]1[C@@H]2CC[C@@]2(C)[C@H]1CC[C@@]2(O)c1cn(-c2ccc(OC(F)(F)F)cc2)nn1` [compound 7], the IC50 (tubulin [8]) is given as 5.9 µM.
For Quinolin-6-yloxyacetamide, the IC50 (A2780AD cell line) is given as 0.262 µM.
